The record followed here is US9023847B2, “Azaheterocyclic compounds” (Merck Patent GmbH, priority 2009, dated 2015).

SMILES strings stand for the structures.

For the first assay, the target named is T1, P70S6K (T412E mutant, Millipore) (Homo sapiens, UniProt P23443, T412E).
T1 construct: purchased Millipore
T1 sequence (P23443 whole entry T412E): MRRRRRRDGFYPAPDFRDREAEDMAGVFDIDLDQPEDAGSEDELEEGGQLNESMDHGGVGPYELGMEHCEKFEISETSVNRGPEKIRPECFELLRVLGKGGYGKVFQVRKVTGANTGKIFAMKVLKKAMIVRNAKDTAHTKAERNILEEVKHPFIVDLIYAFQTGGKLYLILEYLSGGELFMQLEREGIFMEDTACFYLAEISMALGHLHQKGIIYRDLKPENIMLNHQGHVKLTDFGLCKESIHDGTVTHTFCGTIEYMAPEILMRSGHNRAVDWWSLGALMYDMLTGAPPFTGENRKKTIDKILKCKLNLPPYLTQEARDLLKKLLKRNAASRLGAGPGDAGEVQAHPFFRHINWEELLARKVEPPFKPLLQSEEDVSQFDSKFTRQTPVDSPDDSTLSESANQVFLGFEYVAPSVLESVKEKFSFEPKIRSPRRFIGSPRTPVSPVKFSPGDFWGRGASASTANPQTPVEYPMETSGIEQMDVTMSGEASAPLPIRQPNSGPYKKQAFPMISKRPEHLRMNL
In words: p70S6K enzyme assay. Format: biochemical. The note with it: Table 1; 3 nM P70S6K, 24 μM ATP, 90 min at 25° C.; read-out: p70S6K inhibition (IC50). The procedure:
P70S6K inhibitor compounds are diluted and plated in 96 well plates. A reaction mixture including the following components is then added to the compound plate to initiate the enzyme reaction; P70S6K (3 nM, T412E mutant, Millipore) is mixed with 24 μM ATP in an assay buffer containing 100 mM Hepes (pH 7.5), 5 mM MgCl2, 1 mM DTT, 0.015% Brij and 1 μM of the substrate peptide FITC-AHA-AKRRRLSSLRA-OH (derived from the S6 ribosomal protein sequence, FITC=fluorescein isothiocyanate, AHA=6-aminohexanoic acid). The reaction is incubated for 90 min at 25° C., before the addition of 10 mM EDTA to stop the reaction. The proportion of substrate and product (phosphorylated) peptide is analysed on a Caliper Life Sciences Lab Chip 3000, using a pressure of −1.4 psi, and upstream and downstream voltages of −3000 and −700 respectively. Product peaks are resolved before substrate peaks on the resulting chromatograms.
Take `CC(C)(C)OC(=O)N1CCC(NC(=O)c2sccc2Nc2ccnc3[nH]ccc23)C1` (stereo not shown) [Example 156, 3-{[3-(1H-Pyrrolo[2,3-b]pyridin-4-ylamino)-thiophene-2-carbonyl]-amino}-pyrrolidine-1-carboxylic acid tert-butyl ester]: the IC50 lay within 1 to 10 µM. With `O=C(NCCc1cccc(F)c1)c1sccc1Nc1ncnc2[nH]ccc12` [Example 142, 3-(7H-Pyrrolo[2,3-d]pyrimidin-4-ylamino)-thiophene-2-carboxylic acid [2-(3-fluoro-phenyl)-ethyl]-amide], the IC50 is < 0.1 µM.

The same assay, now with this note: class symbol; 3 nM P70S6K, 24 μM ATP; read-out: IC50 (p70S6K).
With `COc1ccc(CCNC(=O)c2sccc2Nc2ccnc3[nH]ccc23)cc1` [Example 28, 3-(1H-Pyrrolo[2,3-b]pyridin-4-ylamino)-thiophene-2-carboxylic acid [2-(4-methoxy-phenyl)-ethyl]-amide], the IC50 is < 0.1 µM. The same measure, in the same setting: the same measure for `CC(C)(C)OC(=O)N1CCC(NC(=O)c2ccsc2Nc2ccnc3[nH]ccc23)C1` (stereo not shown) [Example 102, 3-{[2-(1H-Pyrrolo[2,3-b]pyridin-4-ylamino)-thiophene-3-carbonyl]-amino}-pyrrolidine-1-carboxylic acid tert-butyl ester]: 0.1 to 1 µM; for `NC[C@@H](NC(=O)c1sccc1Nc1ccnc2[nH]ccc12)c1ccccc1` [Example 170, 3-(1H-Pyrrolo[2,3-b]pyridin-4-ylamino)-thiophene-2-carboxylic acid ((S)-2-amino-1-phenyl-ethyl)-amide]: < 0.1 µM.

In the case of `O=C(Nc1ccc(F)cc1)c1sccc1Nc1ccnc2[nH]ccc12` [Example 37, 3-(1H-Pyrrolo[2,3-b]pyridin-4-ylamino)-thiophene-2-carboxylic acid (4-fluoro-phenyl)-amide], the IC50 is < 0.1 µM.

For the compound `Cc1cc(Nc2ccnc3[nH]ccc23)c(C(=O)N[C@H](CO)c2ccccc2)s1` [Example 80, 5-Methyl-3-(1H-pyrrolo[2,3-b]pyridin-4-ylamino)-thiophene-2-carboxylicacid ((S)-2-hydroxy-1-phenyl-ethyl)-amide], the IC50 lay within 0.1 to 1 µM. Take `COc1cccc([C@@H](CN)NC(=O)c2sccc2Nc2ccnc3[nH]ccc23)c1` (stereo in doubt) [Example 123, 3-(1H-Pyrrolo[2,3-b]pyridin-4-ylamino)-thiophene-2-carboxylic acid [2-amino-1-(3-methoxy-phenyl)-ethyl]-amide]: the IC50 is < 0.1 µM.

As for `CC(C)(C)OC(=O)N(CCNC(=O)c1occc1Nc1ncnc2[nH]ccc12)Cc1ccccc1` [Example 177], the IC50 lay in the range of 1 to 10 µM.

As for `O=C(NCCNc1ccccc1)c1sccc1Nc1ccnc2[nH]ccc12` [Example 34, 3-(1H-Pyrrolo[2,3-b]pyridin-4-ylamino)-thiophene-2-carboxylic acid (2-phenylamino-ethyl)-amide], the IC50 is < 0.1 µM. Still for that read-out and setting: the same measure for `COc1ccccc1C(CN)NC(=O)c1ccsc1Nc1ccnc2[nH]ccc12` (stereo not shown) [Example 109, 2-(1H-Pyrrolo[2,3-b]pyridin-4-ylamino)-thiophene-3-carboxylic acid [2-amino-1-(2-methoxy-phenyl)-ethyl]-amide]: < 0.1 µM. In the case of `O=C(N[C@H](CO)c1ccccc1)c1ccsc1Nc1ccnc2[nH]ccc12` [Example 75, 2-(1H-Pyrrolo[2,3-b]pyridin-4-ylamino)-thiophene-3-carboxylic acid ((S)-2-hydroxy-1-phenyl-ethyl)-amide], the IC50 is < 0.1 µM. Turning to `O=C(NCCNCc1ccccn1)c1sccc1Nc1ccnc2[nH]ccc12` [Example 41, 3-(1H-Pyrrolo[2,3-b]pyridin-4-ylamino)-thiophene-2-carboxylic acid {2-[(pyridin-2-ylmethyl)-amino]-ethyl}-amide], the IC50 was < 0.1 µM. On the same count and under the same terms, the same measure for `Cc1cccc(CNCCNC(=O)c2sccc2Nc2ccnc3[nH]ccc23)c1` [Example 56, 3-(1H-Pyrrolo[2,3-b]pyridin-4-ylamino)-thiophene-2-carboxylic acid [2-(3-methyl-benzylamino)-ethyl]-amide]: < 0.1 µM; for `NC[C@@H](NC(=O)c1sccc1Nc1ccnc2[nH]ccc12)c1cccc(Cl)c1` (stereo in doubt) [Example 124, 3-(1H-Pyrrolo[2,3-b]pyridin-4-ylamino)-thiophene-2-carboxylic acid [2-amino-1-(3-chloro-phenyl)-ethyl]-amide]: < 0.1 µM; for `COc1cccc(CNCCNC(=O)c2sccc2Nc2ccnc3[nH]ccc23)c1` [Example 49, 3-(1H-Pyrrolo[2,3-b]pyridin-4-ylamino)-thiophene-2-carboxylic acid [2-(3-methoxy-benzylamino)-ethyl]-amide]: < 0.1 µM. In the case of `O=C(NCCNCc1ccc(OC(F)(F)F)cc1)c1sccc1Nc1ccnc2[nH]ccc12` [Example 51, 3-(1H-Pyrrolo[2,3-b]pyridin-4-ylamino)-thiophene-2-carboxylic acid [2-(4-trifluoromethoxy-benzylamino)-ethyl]-amide], the IC50 was < 0.1 µM.

For the compound `O=C(NCC1CCCO1)c1sccc1Nc1ccnc2[nH]ccc12` (stereo not shown) [Example 3, 3-(1H-Pyrrolo[2,3-b]pyridin-4-ylamino)-thiophene-2-carboxylic acid (tetrahydro-furan-2-ylmethyl)-amide], the IC50 lay within 0.1 to 1 µM. The same measure, in the same setting: the result for `O=C(NCCOc1ccccc1)c1sccc1Nc1ccnc2[nH]ccc12` [Example 12, 3-(1H-Pyrrolo[2,3-b]pyridin-4-ylamino)-thiophene-2-carboxylic acid (2-phenoxy-ethyl)-amide] reads 0.1 to 1 µM. Regarding `Cc1cc(Nc2ncnc3[nH]ccc23)c(C(=O)NCc2cccc(Cl)c2)s1` [Example 178, 5-Methyl-3-(7H-pyrrolo[2,3-d]pyrimidin-4-ylamino)-thiophene-2-carboxylic acid 3-chloro-benzylamide], the IC50 lay within 0.1 to 1 µM. Same read-out and setting: the result for `O=C(NC1CCCNC1)c1sccc1Nc1ncnc2[nH]ccc12` (stereo not shown) [Example 186, 3-(7H-Pyrrolo[2,3-d]pyrimidin-4-ylamino)-thiophene-2-carboxylic acid piperidin-3-ylamide] reads < 0.1 µM; that for `CC(C)(C)OC(=O)N1CCCC(NC(=O)c2sccc2Nc2ccnc3[nH]ccc23)C1` (stereo not shown) [Example 91, 3-{[3-(1H-Pyrrolo[2,3-b]pyridin-4-ylamino)-thiophene-2-carbonyl]-amino}-piperidine-1-carboxylic acid tert-butyl ester], 0.1 to 1 µM; that for `O=C(NCCNCc1ccc(Cl)c(C(F)(F)F)c1)c1sccc1Nc1ccnc2[nH]ccc12` [Example 90, 3-(1H-Pyrrolo[2,3-b]pyridin-4-ylamino)-thiophene-2-carboxylic acid [2-(4-chloro-3-trifluoromethyl-benzylamino)-ethyl]-amide], < 0.1 µM. Same read-out and setting: the result for `Cc1cccc(CN(CCNC(=O)c2sccc2Nc2ccnc3[nH]ccc23)Cc2cccc(C)c2)c1` [Example 55, 3-(1H-Pyrrolo[2,3-b]pyridin-4-ylamino)-thiophene-2-carboxylic acid {2-[bis-(3-methyl-benzyl)-amino]-ethyl}-amide] reads 0.1 to 1 µM.

Staying with this assay, now noted: numeric bound printed under the example; read-out: IC50 (p70S6K).
Take `O=C(NCCNCc1ccccc1)c1sc2ccccc2c1Nc1ccnc2[nH]ccc12` [Example 82, 3-(1H-Pyrrolo[2,3-b]pyridin-4-ylamino)-benzo[b]thiophene-2-carboxylic acid (2-benzylamino-ethyl)-amide]: the 50% inhibitory concentration (IC50) was > 10 µM.

The term IC50 denotes the concentration at which inhibition is half-maximal.
